This note sets out measurements from patent US9085603B2, “Progesterone receptor antagonists” (Bayer Intellectual Property GmbH, priority 2010, dated 2015).

Usually IC50 stands for the concentration that inhibits the measured activity by half.

Structures are written as SMILES.

In the test the target is T1, human progesterone receptor A (Homo sapiens, UniProt P06401).
T1 construct: expressed in transfected cells; host or cells: SK-N-MC human neuroblastoma cells, stably transfected with pRChPR-A-neo and pMMTV-LUC
T1 sequence (P06401 1-769 isoform P06401-2): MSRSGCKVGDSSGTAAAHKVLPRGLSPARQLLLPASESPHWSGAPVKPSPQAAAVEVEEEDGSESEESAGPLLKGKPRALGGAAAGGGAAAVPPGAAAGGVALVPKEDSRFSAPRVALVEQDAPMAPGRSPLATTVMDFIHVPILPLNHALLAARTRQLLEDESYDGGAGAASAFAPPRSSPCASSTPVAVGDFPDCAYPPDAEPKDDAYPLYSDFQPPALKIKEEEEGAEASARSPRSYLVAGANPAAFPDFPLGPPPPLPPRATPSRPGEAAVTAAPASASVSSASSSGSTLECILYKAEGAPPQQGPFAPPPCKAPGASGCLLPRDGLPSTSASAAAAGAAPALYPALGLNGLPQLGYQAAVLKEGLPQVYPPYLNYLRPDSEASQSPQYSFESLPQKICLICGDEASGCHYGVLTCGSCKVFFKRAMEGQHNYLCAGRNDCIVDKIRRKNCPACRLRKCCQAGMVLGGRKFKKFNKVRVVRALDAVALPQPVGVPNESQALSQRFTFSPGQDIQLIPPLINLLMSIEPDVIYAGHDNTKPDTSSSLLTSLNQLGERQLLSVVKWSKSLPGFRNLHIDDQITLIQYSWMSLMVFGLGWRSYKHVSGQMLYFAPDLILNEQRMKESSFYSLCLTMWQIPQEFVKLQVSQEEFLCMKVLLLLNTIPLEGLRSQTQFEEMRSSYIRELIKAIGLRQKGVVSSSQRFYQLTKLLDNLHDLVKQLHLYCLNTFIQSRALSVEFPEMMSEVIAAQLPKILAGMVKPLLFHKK
The experiment in a line: Progesterone receptor antagonistic effect in stably transfected SK-N-MC cells, MTV-LUC reporter (PR-A). Format: cell-based. Conditions: antagonism of 0.1 nmol/l promegestone, luciferase reporter, 24 hours. As for the experimental part: Progesterone Receptor Antagonistic Effect in Stable Transfectants of Human Neuroblastoma Cells (SK-N-MC cells) with the Human Progesterone A or Progesterone B Receptor and a MTV-LUC Reporter Construct
SK-N-MC cells (human neuroblastoma cells), which have been stably transfected with plasmids which express the human progesterone receptor B (pRChPR-B-neo) or the human progesterone receptor A (pRChPR-A-neo) and a reporter construct (pMMTV-LUC), were incubated for 24 hours either in the absence (negative control) or in the presence of increasing amounts of the particular test compound (0.01 nmol/l, 0.1 nmol/l, 1 nmol/l, 10 nmol/l, 100 nmol/l and 1 μmol/l) in order to determine the agonistic efficacy. As a positive control of the reporter gene induction, the cells were treated with the synthetic gestagen promegestone (0.01 nmol/l, 0.1 nmol/l, 1 nmol/l, 10 nmol/l, 100 nmol/l and 1 μmol/l). To determine the antagonistic activity, the cells were treated with 0.1 nmol/l of promegestone and additionally with increasing amounts of the particular test compound (0.01 nmol/l, 0.1 nmol/l, 1 nmol/l, 10 nmol/l, 100 nmol/l and 1 μmol/l). The activity of the reporter gene LUC (LUC=luciferase) was determined in the cell lysates and measured as RLU (relative light units). All measurement values are given as percentage efficacy and as EC50 or IC50 concentrations.
On the technique in general: Reporter assays use an easily measured gene product as a stand-in for the process of interest.
Take `C[C@]12C[C@H](c3ccc(CNc4ccc(S(N)(=O)=O)cc4)cc3)C3=C4CCC(=O)C=C4CC[C@H]3[C@@H]1CC[C@@]2(O)C(F)(F)C(F)(F)F` [Example 18, 4-({4-[(11β,17β)-17-Hydroxy-3-oxo-17-(pentafluoroethyl)estra-4,9-dien-11-yl]benzyl}amino)benzenesulphonamide]: the half-inhibitory concentration (IC50) worked out at 0.51 nM. With `C[C@]12C[C@H](c3ccc(CNc4cccnc4)cc3)C3=C4CCC(=O)C=C4CC[C@H]3[C@@H]1CC[C@@]2(O)C(F)(F)C(F)(F)F` [Example 19, (11β,17β)-17-Hydroxy-17-(pentafluoroethyl)-11-{4-[(pyridin-3-ylamino)methyl]phenyl}estra-4,9-dien-3-one] the figure was 0.94 nM; with `C[C@]12C[C@H](c3ccc(CNc4ccccc4)cc3)C3=C4CCC(=O)C=C4CCC3C1CC[C@@]2(O)C(F)(F)C(F)(F)F` (stereo partly drawn) [Example 20, (11β,17β)-11-[4-(Anilinomethyl)phenyl]-17-hydroxy-17-(pentafluoroethyl)estra-4,9-dien-3-one], 1.64 nM; with `COc1ccccc1NCc1ccc([C@H]2C[C@@]3(C)[C@@H](CC[C@@]3(O)C(F)(F)C(F)(F)F)[C@@H]3CCC4=CC(=O)CCC4=C32)cc1` [Example 21, (11β,17β)-17-Hydroxy-11-(4-{[(2-methoxyphenyl)amino]methyl}phenyl)-17-(pentafluoroethyl)estra-4,9-dien-3-one], 6.06 nM.

For `COc1cccc(NCc2ccc([C@H]3C[C@@]4(C)[C@@H](CC[C@@]4(O)C(F)(F)C(F)(F)F)[C@@H]4CCC5=CC(=O)CCC5=C43)cc2)c1` [Example 22, (11β,17β)-17-Hydroxy-11-(4-{[(3-methoxyphenyl)amino]methyl}phenyl)-17-(pentafluoroethyl)estra-4,9-dien-3-one], the midpoint of inhibition, the IC50, lay at 2.52 nM. Under `C[C@]12C[C@H](c3ccc(CNc4ccc(Cl)cc4)cc3)C3=C4CCC(=O)C=C4CCC3C1CC[C@@]2(O)C(F)(F)C(F)(F)F` (stereo partly drawn) [Example 23, (11β,17β)-11-(4-{[(4-Chlorophenyl)amino]methyl}phenyl)-17-hydroxy-17-(pentafluoroethyl)estra-4,9-dien-3-one] stands 2.07 nM; under `CCN(CC)Cc1ccc([C@H]2C[C@@]3(C)C(CC[C@@]3(O)C(F)(F)C(F)(F)F)C3CCC4=CC(=O)CCC4=C32)cc1` (stereo partly drawn) [Example 24, (11β,17β)-11-{4-[(Diethylamino)methyl]phenyl}-17-hydroxy-17-(pentafluoroethyl)estra-4,9-dien-3-one], 51 nM; under `C[C@]12C[C@H](c3ccc(CN4CCN(c5ccccc5)CC4)cc3)C3=C4CCC(=O)C=C4CC[C@H]3[C@@H]1CC[C@@]2(O)C(F)(F)C(F)(F)F` [Example 25, (11β,17β)-17-Hydroxy-17-(pentafluoroethyl)-11-{4-[(4-phenylpiperazin-1-yl)methyl]phenyl}estra-4,9-dien-3-one], 3.06 nM. Under `CN(Cc1ccncc1)Cc1ccc([C@H]2C[C@@]3(C)[C@@H](CC[C@@]3(O)C(F)(F)C(F)(F)F)[C@@H]3CCC4=CC(=O)CCC4=C32)cc1` [Example 26, (11β,17β)-17-Hydroxy-11-(4-{[methyl(pyridin-4-ylmethyl)amino]methyl}phenyl)-17-(pentafluoroethyl)estra-4,9-dien-3-one] stands 4.65 nM; under `CN(C)CCN(C)Cc1ccc([C@H]2C[C@@]3(C)C(CC[C@@]3(O)C(F)(F)C(F)(F)F)C3CCC4=CC(=O)CCC4=C32)cc1` (stereo partly drawn) [Example 27, (11β,17β)-11-[4-({[2-(Dimethylamino)ethyl](methyl)amino}methyl)phenyl]-17-hydroxy-17-(pentafluoroethyl)estra-4,9-dien-3-one], 3.52 nM. With `COC(=O)c1ccccc1NCc1ccc([C@H]2C[C@@]3(C)[C@@H](CC[C@@]3(O)C(F)(F)C(F)(F)F)[C@@H]3CCC4=CC(=O)CCC4=C32)cc1` [Example 28, Methyl 2-({4-[(11β,17β)-17-hydroxy-3-oxo-17-(pentafluoroethyl)estra-4,9-dien-11-yl]benzyl}amino)benzoate] the figure was 5.05 nM; with `COC(=O)c1ccc(NCc2ccc([C@H]3C[C@@]4(C)[C@@H](CC[C@@]4(O)C(F)(F)C(F)(F)F)[C@@H]4CCC5=CC(=O)CCC5=C43)cc2)cc1` [Example 29, Methyl 4-({4-[(11β,17β)-17-hydroxy-3-oxo-17-(pentafluoroethyl)estra-4,9-dien-11-yl]benzyl}amino)benzoate], 1.19 nM. Take `C[C@]12C[C@H](c3ccc(CN4CCc5ccccc5C4)cc3)C3=C4CCC(=O)C=C4CCC3C1CC[C@@]2(O)C(F)(F)C(F)(F)F` (stereo partly drawn) [Example 30, (11β,17β)-11-[4-(3,4-Dihydroisoquinolin-2(1H)-ylmethyl)phenyl]-17-hydroxy-17-(pentafluoroethyl)estra-4,9-dien-3-one]: the IC50 was 2.35 nM.

`C[C@]12C[C@H](c3ccc(CN4CCN(Cc5ccccc5)CC4)cc3)C3=C4CCC(=O)C=C4CCC3C1CC[C@@]2(O)C(F)(F)C(F)(F)F` (stereo partly drawn) [Example 31, (11β,17β)-11-{4-[(4-Benzylpiperazin-1-yl)methyl]phenyl}-17-hydroxy-17-(pentafluoroethyl)estra-4,9-dien-3-one] returned a concentration for half-maximal inhibition (IC50) of 4.52 nM. With `C[C@]12C[C@H](c3ccc(CNc4ccc(C(N)=O)cc4)cc3)C3=C4CCC(=O)C=C4CC[C@H]3[C@@H]1CC[C@@]2(O)C(F)(F)C(F)(F)F` [Example 32, 4-({4-[(11β,17β)-17-Hydroxy-3-oxo-17-(pentafluoroethyl)estra-4,9-dien-11-yl]benzyl}amino)benzamide] the figure was 0.78 nM. Consider `CN(CCc1ccccc1)Cc1ccc([C@H]2C[C@@]3(C)[C@@H](CC[C@@]3(O)C(F)(F)C(F)(F)F)[C@@H]3CCC4=CC(=O)CCC4=C32)cc1` [Example 33, (11β,17β)-17-Hydroxy-11-(4-{[methyl(2-phenylethyl)amino]methyl}phenyl)-17-(pentafluoroethyl)estra-4,9-dien-3-one], for which the midpoint of inhibition, the IC50, lay at 5.57 nM. With `C[C@]12C[C@H](c3ccc(CN4CCN(CCc5ccccc5)CC4)cc3)C3=C4CCC(=O)C=C4CC[C@H]3[C@@H]1CC[C@@]2(O)C(F)(F)C(F)(F)F` [Example 34, (11β,17β)-17-Hydroxy-17-(pentafluoroethyl)-11-(4-{[4-(2-phenylethyl)piperazin-1-yl]methyl}phenyl)estra-4,9-dien-3-one] the figure was 5.55 nM. Under `C[C@]12C[C@H](c3ccc(CN4CCN(c5cnccn5)CC4)cc3)C3=C4CCC(=O)C=C4CC[C@H]3[C@@H]1CC[C@@]2(O)C(F)(F)C(F)(F)F` [Example 35, (11β,17β)-17-Hydroxy-17-(pentafluoroethyl)-11-(4-{[4-(pyrazin-2-yl)piperazin-1-yl]methyl}phenyl)estra-4,9-dien-3-one] stands 0.68 nM; under `C[C@]12C[C@H](c3ccc(CN4CCN(CCN5CCCC5)CC4)cc3)C3=C4CCC(=O)C=C4CC[C@H]3[C@@H]1CC[C@@]2(O)C(F)(F)C(F)(F)F` [Example 36, (11β,17β)-17-Hydroxy-17-(pentafluoroethyl)-11-[4-({4-[2-(pyrrolidin-1-yl)ethyl]piperazin-1-yl}methyl)phenyl]estra-4,9-dien-3-one], 33.7 nM. Consider `C[C@]12C[C@H](c3ccc(CN4CCN(Cc5ccncc5)CC4)cc3)C3=C4CCC(=O)C=C4CC[C@H]3[C@@H]1CC[C@@]2(O)C(F)(F)C(F)(F)F` [Example 37, (11β,17β)-17-Hydroxy-17-(pentafluoroethyl)-11-(4-{[4-(pyridin-4-ylmethyl)piperazin-1-yl]methyl}phenyl)estra-4,9-dien-3-one], for which the IC50 came out at 2.33 nM.
